Data as given in publication PMC10746112, “Synthesis and Pro-Apoptotic Effects of Nitrovinylanthracenes and Related Compounds in Chronic Lymphocytic Leukaemia (CLL) and Burkitt’s Lymphoma (BL)” (Molecules, 2023).
Several values for one entry are separate records, joined by “and”; a condition that tells them apart may be missing. Equal values may be shown once. Read-outs that look alike come from different tables or passages of the source.

Key:
[1] = tested on: DG-75 Burkitt’s lymphoma cell line; settings: read-out: IC50 DG-75; previous work; cited from earlier work
[2] = tested on: PGA-1 CLL cell line; assay: alamarBlue cell viability assay; settings: 24 h; for viability at 10 µM: read-out: % Viability PGA-1, 10 µM, 24 h
[3] = tested on: MUTU-I Burkitt’s lymphoma cell line; settings: cited from earlier work; for IC50: read-out: IC50 MUTU-I, previous work
[4] = tested on: HG-3 CLL cell line; assay: alamarBlue cell viability assay; settings: CLL cell, 24 h, read-out: % Viability HG-3, 10 µM, 24 h
[5] = tested on: DG-75 Burkitt’s lymphoma cell line; assay: alamarBlue cell viability assay; settings: for viability at 1 µM / viability at 10 µM: Homo sapiens, DG-75, 48 h; for viability at 1 µM: read-out: % Viable Cells Remaining DG-75, 1 µM, 48 h; for viability at 10 µM: read-out: % Viable Cells Remaining DG-75, 10 µM, 48 h; for % Viable Cells Remaining DG-75: 48 h
[6] = tested on: MUTU-I Burkitt’s lymphoma cell line; settings: human, 24 h, 10 µM
[7] = tested on: MUTU-I Burkitt’s lymphoma cell line; assay: alamarBlue cell viability assay; settings: 24 h; for viability at 1 µM / viability at 10 µM: MUTU-I
[8] = tested on: DG-75 Burkitt’s lymphoma cell line; settings: human, 48 h, 10 µM
[9] = read-out: % Viable Cells Remaining MUTU-1, 1 µM, 24 h
[10] = read-out: % Viable Cells Remaining MUTU-1, 10 µM, 24 h
[11] = read-out: % Viable Cells Remaining MUTU-1

Row | SMILES | viability at 10 µM ([2]; CLL cell) [%] | viability at 1 µM [5] [%] | viability at 10 µM [5] [%] | % Viable Cells Remaining MUTU-1 [6] [%] | viability at 1 µM [7, 9] [%] | viability at 10 µM [7, 10] [%] | melting point [°C] | % Viable Cells Remaining DG-75 [8] [%] | other results
1 | CC/C(=C\c1cc(Br)ccc1OC)[N+](=O)[O-] [Compound 10a, (E)-4-bromo-1-methoxy-2-(2-nitrobut-1-en-1-yl)benzene, reference compound] | 0.97 | – | – | – | – | – | – | – | IC50 [1]: 1410 nM; viability at 1 µM ([2]; CLL cell, read-out: % Viability PGA-1, 1 µM, 24 h): 96.4%; IC50 [3]: 450 nM
2 | COc1ccc2c(c1)OC(c1ccccc1)C([N+](=O)[O-])=C2 (stereo not drawn) [Compound 10b, reference compound] | – | – | – | – | – | – | – | – | IC50 [1]: 1920 nM; IC50 [3]: 470 nM
3 | O=[N+]([O-])/C(=C/c1ccc(Cl)cc1)Cc1ccc(Cl)cc1 [Compound 10c, reference compound] | – | – | – | – | – | – | – | – | IC50 [1]: 6390 nM; IC50 [3]: 2970 nM
4 | C/C(=C\c1ccc(F)cc1)[N+](=O)[O-] [Compound 11c] | 3.7 | – | – | – | – | – | – | – | % Viable Cells Remaining MUTU-1 24 h 10 µM ([3]; nitrostyrenes, 10 µM, 24 h): 19.06%; viability at 10 µM [4]: 8.76%
5 | O=[N+]([O-])/C=C/c1c2ccccc2c(Cl)c2ccccc12 [Compound 19d] | 51.8 | 75.1 | 57.1 | 7.61 | 70.8 | 7.6 | – | – | viability at 10 µM [4]: 97%
6 | C/C(=C\c1c2ccccc2c(Cl)c2ccccc12)[N+](=O)[O-] [Compound 19e] | – | 82.5 | 99.6 | 98.6 | 105 | 98.6 | – | – | viability at 10 µM [4]: 87%
7 | CC/C(=C\c1c2ccccc2c(Cl)c2ccccc12)[N+](=O)[O-] [Compound 19f, (E)-9-chloro-10-(2-nitrobut-1-en-1-yl)anthracene] | – | 105 | 78 | 97.5 | 96.6 | 97.5 | – | – | –
8 | O=[N+]([O-])/C=C/c1c2ccccc2c(Br)c2ccccc12 [Compound 19h, (E)-9-Bromo-10-(2-Nitrovinyl)Anthracene] | 36.9 | 84.8 | 70 | – | 51.2 | 3.36 | 227 to 230 | – | –
9 | O=[N+]([O-])C=CCc1c2ccccc2cc2ccccc12 [Compound 20a, 9-(3-Nitroallyl)Anthracene] | > 50 | 99.9 | 79 to 97 | – | 106 | – | – | 79.71 | –
10 | CC(=CCc1c2ccccc2cc2ccccc12)[N+](=O)[O-] [Compound 20b, 9-(3-Nitrobut-2-en-1-yl)Anthracene] | – | 95.4 | 79 to 97 | 14.55 | 105 | 15 to 40 | – | 97.63 | –
11 | O=[N+]([O-])/C=C/c1cc2ccccc2c2ccccc12 [Compound 21, (E)-9-(2-Nitrovinyl)phenanthrene] | 11.8 | 99.5 | 60 | – | – | – | – | – | % Viable Cells Remaining DG-75 ([5]; 10 µM): 62.2%; viability at 10 µM [4]: 29%; viability at 1 µM [7, 11]: 73.6%; viability at 10 µM [7, 11]: 1.68%
12 | O=[N+]([O-])CCc1c2ccccc2cc2ccccc12 [Compound 22, 9-(2-Nitroethyl)Anthracene] | 75 | 86.7 | > 85 | 100.6 | 105 | > 85 | 147 to 149 | 99.08 | viability at 10 µM [4]: 76%
13 | N#CC(C#N)=Cc1c2ccccc2c(Cl)c2ccccc12 [Compound 23b, 2-((10-Chloroanthracen-9-yl)Methylene)Malononitrile] | – | – | – | – | – | – | 196 to 198 | – | % Viable Cells Remaining DG-75 ([5]; 1 µM): 85.59%; % Viable Cells Remaining DG-75 ([5]; 10 µM): ~ 55% and 52.84%; % Viability PGA-1 ([2]; 10 µM): > 50%; % Viable Cells Remaining MUTU-1 ([7]; 1 µM): 92.59%; % Viable Cells Remaining MUTU-1 ([7]; 10 µM): ~ 20% and 16.78%
14 | CC(=O)/C=C/c1c2ccccc2cc2ccccc12 [Compound 25] | – | 96.3 | > 90 | 103.2 | 107 | > 90 | – | 100.5 | –
15 | ClCc1c2ccccc2cc2ccccc12 [Compound 27, 9-(chloromethyl)anthracene] | – | 79 | 85.5 | 93.8 | 102 | 93.8 | – | – | –
16 | c1ccc2c(-c3c[nH]nn3)c3ccccc3cc2c1 [Compound 30a, 4-(anthracen-9-yl)-1H-1,2,3-triazole] | – | 104 | > 90 | 94.5 | 94.9 | > 90 | – | 94.86 | –
17 | Cc1[nH]nnc1-c1c2ccccc2cc2ccccc12 [Compound 30b, 4-(Anthracen-9-yl)-5-Methyl-1H-1,2,3-Triazole] | – | 96.2 | > 90 | 107.3 | 108 | > 90 | 231 to 232 | 100.6 | –
18 | c1ccc2c(C3CNN=N3)c3ccccc3cc2c1 (stereo not drawn) [Compound 31, 4-(Anthracen-9-yl)-4,5-Dihydro-1H-1,2,3-Triazole] | – | 96 | > 90 | 103.1 | 96 | > 90 | 266 to 268 | 103.1 | –
19 | CN(C)C(=O)c1c2ccccc2cc2ccccc12 [Compound 33b] | – | 96.2 | 75 | 90.1 | 91.4 | 90.1 | 150 to 152 | – | –
20 | O=C(c1c2ccccc2cc2ccccc12)N1CCCCCC1 [Compound 33c, Anthracen-9-yl(Azepan-1-yl)Methanone] | – | 69.6 | 71.6 | 77.4 | 86.8 | 77.4 | 134 to 137 | – | –
21 | O=C(c1c2ccccc2cc2ccccc12)N1CCCC1 [Compound 33d] | – | 69.4 | 67.1 | 95.6 | 91.6 | 95.6 | 149 to 151 | – | –
22 | O=C(c1c2ccccc2cc2ccccc12)N1CCCCC1 [Compound 33f] | – | 72.5 | 78.8 | 84.8 | 83.1 | 84.8 | 181 to 183 | – | –
